Experimental data taken from patent US20230140290A1, “SALICYLAMIDE DERIVATIVES AND RELATED METHODS OF MAKING” (THE BOARD OF REGENTS OF THE UNIVERSITY OF TEXAS SY, priority 2020, published 2023).
Where two headings read alike, the source gives them in different places.

Legend:
HAdV5-GFP [1] = assay: Plaque assay (inhibition of HAdV plaque formation); assay type: cell-based, HAdV-5; conditions: for inhibition at 10 µM: read-out: Plaque Assay (%) Inhibition (10 μM); for Selectivity index (SI): ratio of CC50 to IC50 in plaque assay
Procedure, shortened: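 Cells at 80-90% confluency infected with HAdV5-GFP at 0.06 vp/cell, rocked 2 h at 37° C, then washed with PBS. Compounds tested at 10 μM and in dose-response from 10 to 0.3 μM, included in the post-infection mixture.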

HAdV5-GFP [2] = assay: Entry assay (HAdV5-mediated GFP expression); assay type: cell-based, HAdV-5; conditions: for (%) Inhibition Entry Assay (50 μM): 48 h; for inhibition at 50 µM: A549, 48 h, read-out: (%) Inhibition Entry Assay (50 μM)
Description: Entry Assay. The anti-HAdV activity was measured in an entry assay using human A549 epithelial cells (3×10^5 cells/well in coming black wall, clear bottom 96-well plates) infected with HAdV5-GFP (2000 vp/cell) in the presence 50 μM of the candidates and in a dose-response assay. A standard infection curve was generated in parallel by infecting cells in the absence of compounds using serial 2-fold dilutions of virus. All reactions were done in triplicate. Cells, virus, and drugs were incubated for 48 h at 37° C. and 5% CO2.

[3] = Maximum tolerated dose (MTD); conditions: immunosuppressed Syrian hamster, intraperitoneal
Description: Maximum tolerated dose (MTD). […] Before dosing, compounds were diluted in 10% DMSO, 10% Cremophor EL and 80% sodium chloride physiological solution. […] At day 14 animals were sacrificed with a lethal dose of thiopental. All inoculations were done via intraperitoneal.

HAdV5 = assay: HAdV-mediated endosome disruption (α-sarcin co-delivery assay); assay type: cell-based, HAdV-5; conditions: FIG. 11; A549, 5 μM, independent of virus concentration
HAdV5-GFP [4] = conditions: read-out: IC50, inhibition of HAdV infection; Marrugal-Lorenzo et al. 2019; cited from earlier work
HAdV5-GFP [5] = assay: Time of addition assay; assay type: cell-based, HAdV-5
Description: (§1) Time of Addition Curve Study. […] Parallel samples of HAdV-5 were incubated with or without the selected derivatives on ice for 1 h. […] The derivatives were added at the indicated time points before or during this incubation. After a total of 2 h at 37° C., cells were incubated for an additional 48 h at 37° C. and 5% CO2 before being analyzed for GFP expression using the Typhoon 9410 imager (GE Healthcare Life Sciences) as above.
as §1, with “Assay.” for “Curve Study.”
as §1, with “Assay.” for “Curve Study.”, “compounds” for “derivatives”, “Compounds 153 and 161” for “The derivatives”

wild-type HAdV5 [6] = assay: Nuclear-associated HAdV genomes (real-time PCR); assay type: cell-based, HAdV-5
Description: (§2) Nuclear-Associated HAdV Genomes. The nuclear delivery of HAdV genomes was assessed by real-time PCR following nuclear isolation from infected cells. […] Forty-five minutes after infection, A549 cells were trypsinized and collected and then washed twice with PBS. Then, cytoplasmic and nuclear fractions were separated using a hypotonic buffer solution and NP-40 detergent. The cell pellet was resuspended in 500 μL of 1×hypotonic buffer (20 mM Tris-HCl pH 7.4, 10 mM NaCl, 3 mM MgCl2) and incubated for 15 min at 4° C. Then, 25 μL of NP-40 was added and the samples were vortexed. The homogenates were centrifuged for 10 min at 835 g at 4° C. Following the removal of the cytoplasmic fraction (supernatant), HAdV DNA was isolated from the nuclear fraction (pellet) and from the cytoplasmic fraction using the QIAamp DNA Mini Kit (QIAGEN, Valencia, Calif.).
as §2, with “E.Z.N.A.® Tissue” for “QIAamp”, “DNA” for “DNA Mini”, “(Omega Bio-tek, Norcross, Ga.).” for “(QIAGEN, Valencia, Calif.).”

wild-type HAdV5 [7] = assay: HAdV DNA quantification by real-time PCR (DNA replication); assay type: cell-based, HAdV-5; conditions: 24 h
Description: DNA Quantification by Real-Time PCR. […] Infected cells were incubated 24 h at 37° C. in 500 μL of complete DMEM containing 25 μM of either compounds or the same volume of DMSO (positive control). All samples were done in duplicate. After 24 h of incubation at 37° C., DNA was purified from the cell lysate with the QIAamp DNA Mini Kit (QIAGEN, Valencia, Calif.) following the manufacturer's instructions. TaqMan primers and probes for a common region of the HAdV5 were designed with the GenScript Real-Time PCR (TaqMan) Primer Design software (GenScript). […] Real-time PCR mixtures consisted of 9.5 μL of the purified DNA, AQ1 and AQ2 at a concentration of 200 nM each and Probe at a concentration of 50 nM in a total volume of 25 μL. The PCR cycling protocol was 95° C. for 3 min followed by 40 cycles of 95° C. for 10 s and 60° C. for 30 s. Human glyceraldehyde-3-phosphate dehydrogenase (GAPDH) gene was used as internal control. Oligonucleotides sequences for GAPDH and conditions were those previously reported by Henke-Gendo et al. (2012).
For quantification, gene fragments from hexon, and GAPDH were cloned into the pGEM-T Easy vector (Promega) and known concentrations of template were used to generate a standard curve in parallel for each experiment. All assays were performed in thermal cycler LightCycler® 96 System (Roche).
(§3) HAdV DNA Quantification by Real-Time PCR. […] All samples were done in duplicate. After 24 h of incubation at 37° C., DNA was purified from the cell lysate with the E.Z.N.A.® Tissue DNA Kit (Omega Bio-tek, Norcross, Ga.) following the manufacturer's instructions. TaqMan primers and probes for a common region of the HAdV5 were designed with the GenScript Real-Time PCR (TaqMan) Primer Design software (GenScript). […] Real-time PCR mixtures consisted of 9.5 μL of the purified DNA, AQ1 and AQ2 at a concentration of 200 nM each and Probe at a concentration of 50 nM in a total volume of 25 μL. The PCR cycling protocol was 95° C. for 3 min followed by 40 cycles of 95° C. for 10 s and 60° C. for 30 s. Human glyceraldehyde-3-phosphate dehydrogenase (GAPDH) gene was used as internal control. Oligonucleotides sequences for GAPDH and conditions were those previously reported by Henke-Gendo et al. (2012).
as §3, with “DNA” for “HAdV DNA”

A549 cells = assay: Cytotoxicity assay (AlamarBlue); conditions: read-out: CC50 (μM), cytotoxic concentration 50%; A549 cell line, 48 h
Description: (§4) Cytotoxicity Assay. The cytotoxicity of the compounds was analyzed by commercial kit AlamarBlue® (Invitrogen, Ref. DAL1025). A549 cells at a density of 5×10^3 cells per well in 96-well plates were seeded. […] Cells were then incubated at 37° C. for 48 h following the kit protocol. The cytotoxic concentration 50 (CC50) value was obtained using the statistical package GraphPad Prism. This assay was performed in duplicate.

HCMV = HCMV DNA quantification by real-time PCR; assay type: cell-based, human cytomegalovirus; conditions: HFF cells, 72 h, 10-fold plaque IC50 (niclosamide 5 μM)
Description: HCMV DNA Quantification by Real-Time PCR. […] Then, cells were incubated for 72 h at 37° C. and 5% CO2 and HCMV DNA was purified from the cell lysate using the QIAamp DNA Mini Kit (Qiagen, Valencia, Calif.) following the manufacturer's instructions. Real-time PCR primers, mixtures and protocols were the same as previously reported (Sanchez-Cespedes et al., J. Med. Chem. 2016, 59, 5432-5448).

[8] = Cytotoxicity assay (AlamarBlue); conditions: human, A549 cells
Description: as §4

[9] = HAdV5-GFP, low MOI, 293β5 cell line, read-out: Plaque Assay IC50
[10] = read-out: Plaque Assay IC50 (μM), HAdV5-GFP, low MOI, 293β5 cell line
[11] = A549, read-out: IC50 Entry Assay (μM), HAdV5-GFP, high MOI, A549 cell line
[12] = FIG. 5A, 45 min post-infection, 10-fold plaque IC50

| SMILES | IC50 (HAdV5-GFP [1]; [9]) [µM] | inhibition at 10 µM (HAdV5-GFP [1]) [%] | IC50 (HAdV5-GFP [1]; [10]) [µM] | inhibition at 50 µM (HAdV5-GFP [2]) [%] | IC50 (HAdV5-GFP [2]; [11]) [µM] | Selectivity index (SI) (HAdV5-GFP [1]) | CC50 (A549 cells) [µM] | amount of nuclear-associated HAdV genomes versus DMSO (wild-type HAdV5 [6]; [12]) | IC50 (HAdV5-GFP [1]; {}) [µM] | CC50 at 48 h [8] [nM] | other results |
| --- | --- | --- | --- | --- | --- | --- | --- | --- | --- | --- | --- |
| O=C(Nc1ccc([N+](=O)[O-])cc1Cl)c1cc(Cl)ccc1O [Compound 6, niclosamide, reference compound] | 0.6 | – | – | – | – | – | – | – | – | – | Plaque Assay (%) Inhibition (10 μM) (HAdV5-GFP [1]; HAdV5-GFP, 10 μM, low MOI, 293β5 cell line): 100 ± 0%; (%) Inhibition Entry Assay (50 μM) (HAdV5-GFP [2]; HAdV5-GFP, high MOI, A549 cell line): 100.0 ± 0.0%; (%) Inhibition Entry Assay (50 μM) (HAdV5-GFP [2]; HAdV5-GFP, high MOI, A549 cell line, listed as 73, 50 µM): 100 ± 0%; IC50 (HAdV5-GFP [2]; HAdV5-GFP, high MOI, A549 cell line, read-out: IC50 Entry Assay): 1.22 ± 0.44 µM; doses showing high toxicity [3]: ≥ 5 mg/kg; rate of HPG incorporation compared to a control without α-sarcin (HAdV5): under 50%; IC50 (HAdV5-GFP [4]): 600 nM |
| O=C(Nc1ccc(C(F)(F)F)cc1Cl)c1cc(Cl)ccc1O [Compound 14, 5-Chloro-N-(2-chloro-4-(trifluoromethyl)phenyl)-2-hydroxybenzamide] | – | 100 | 0.08 | 100 | 1.67 ± 0.25 | – | – | – | – | – | loss of inhibition when added between 5 and 10 min p.i. (HAdV5-GFP [5]; FIG. 2, 10 μM): 20%; amount of nuclear-associated HAdV genomes versus DMSO (wild-type HAdV5 [6]; FIG. 3, 45 min post infection, concentrations by CC50 (2-50 μM)): partially inhibited; inhibition of HAdV-5 DNA replication (qPCR) (wild-type HAdV5 [7]; FIG. 4, concentrations by CC50 (2-50 μM)): significant (p≤0.0001) inhibitory activity |
| O=C(Nc1ccc(NC2CCCC2)cc1Cl)c1cc(Cl)ccc1O [Compound 78, 5-Chloro-N-(2-chloro-4-(cyclopentylamino)phenyl)-2-hydroxybenzamide] | – | 100 | 0.5 ± 0.1 | 27.5 ± 3.8 | > 50 | 185.8 | 92.9 ± 7.1 | no significant differences | – | – | inhibition of HAdV-5 DNA replication (qPCR) (wild-type HAdV5 [7]; FIG. 6A, 10-fold plaque IC50): moderate inhibition; decrease of total HCMV DNA compared to the DMSO control (HCMV): no significant inhibition |
| O=C(Nc1ccc(NCc2cnccc2Cl)cc1Cl)c1cc(Cl)ccc1O [Compound 110, 5-Chloro-N-(2-chloro-4-(((4-chloropyridin-3-yl)methyl)amino)phenyl)-2-hydroxybenzamide] | 1.66 to 4.78 | 100 | – | – | – | 75.7 | 126 ± 25.1 | – | 1.66 ± 0.42 | 65300 to 126000 | – |
| O=C(Nc1ccc(NCc2cccc(Br)n2)cc1Cl)c1cc(Cl)ccc1O [Compound 111, N-(4-(((6-Bromopyridin-2-yl)methyl)amino)-2-chlorophenyl)-5-chloro-2-hydroxybenzamide] | 1.66 to 4.78 | 100 | – | – | – | 40.8 | 92.3 ± 9.5 | – | 2.26 ± 0.05 | 65300 to 126000 | – |
| CC(C)(C)OC(=O)N1CCC(CNc2ccc(NC(=O)c3cc(Cl)ccc3O)c(Cl)c2)CC1 [Compound 126, tert-Butyl 4-(((3-chloro-4-(5-chloro-2-hydroxybenzamido)phenyl)amino)methyl)piperidine-1-carboxylate] | – | 97.8 ± 1.4 | 0.93 | 67.6 | < 3.13 | 102.2 | – | partially inhibited | – | 95000 | anti-HAdV activity when added between 10 and 20 min p.i. (HAdV5-GFP [5]; FIG. 7, 10-fold plaque IC50): loses its anti-HAdV activity |
